Measured values taken from patent US11878975B2, “Substituted indole compounds useful as TLR inhibitors” (BRISTOL-MYERS SQUIBB COMPANY, priority 2017, dated 2024).

Tests used:
Format in all cases: cell-based
human TLR7 = biological target: T1, human TLR7 (Homo sapiens, UniProt Q9NYK1); assay: TLR7 inhibition reporter assay (HEK-Blue cells, SEAP reporter, gardiquimod stimulation); conditions: HEK-Blue cells overexpressing human TLR7, SEAP reporter, gardiquimod 7.5 μM
T1 construct: host or cells: HEK-Blue cells
T1 sequence (Q9NYK1 27-1049): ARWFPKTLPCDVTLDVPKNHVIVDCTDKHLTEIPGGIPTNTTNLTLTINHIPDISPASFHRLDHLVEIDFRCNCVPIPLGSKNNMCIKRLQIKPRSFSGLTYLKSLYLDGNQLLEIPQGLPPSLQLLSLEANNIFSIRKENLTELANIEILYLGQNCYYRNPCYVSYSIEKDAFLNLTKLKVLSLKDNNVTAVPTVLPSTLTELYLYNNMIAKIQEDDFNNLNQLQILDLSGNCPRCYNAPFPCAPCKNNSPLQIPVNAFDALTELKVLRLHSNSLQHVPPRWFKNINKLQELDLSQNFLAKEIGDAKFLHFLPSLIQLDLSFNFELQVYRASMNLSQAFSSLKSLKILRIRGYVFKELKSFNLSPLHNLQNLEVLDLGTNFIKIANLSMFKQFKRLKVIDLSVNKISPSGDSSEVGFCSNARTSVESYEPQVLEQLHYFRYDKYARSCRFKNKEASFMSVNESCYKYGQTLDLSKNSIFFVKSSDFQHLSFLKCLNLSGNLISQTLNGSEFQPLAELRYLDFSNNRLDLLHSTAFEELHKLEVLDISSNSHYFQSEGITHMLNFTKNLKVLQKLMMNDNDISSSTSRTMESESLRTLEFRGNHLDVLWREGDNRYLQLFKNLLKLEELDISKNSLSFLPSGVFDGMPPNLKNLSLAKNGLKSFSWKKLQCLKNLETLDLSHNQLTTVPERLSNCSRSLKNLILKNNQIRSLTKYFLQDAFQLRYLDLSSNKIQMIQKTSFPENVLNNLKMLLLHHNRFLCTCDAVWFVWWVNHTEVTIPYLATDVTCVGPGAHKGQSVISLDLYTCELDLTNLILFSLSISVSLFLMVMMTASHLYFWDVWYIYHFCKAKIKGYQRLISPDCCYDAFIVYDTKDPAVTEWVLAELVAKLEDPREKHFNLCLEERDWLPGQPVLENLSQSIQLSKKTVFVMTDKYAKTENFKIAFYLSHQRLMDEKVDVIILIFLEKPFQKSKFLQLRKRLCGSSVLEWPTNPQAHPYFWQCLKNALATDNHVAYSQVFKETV
Method: (§1) TLR7/8/9 Inhibition Reporter Assays
(§2) HEK-Blue™-cells (Invivogen) overexpressing human TLR7, TLR8 or TLR9 receptors were used for screening inhibitors of these receptors using an inducible SEAP (secreted embryonic alkaline phosphatase) reporter gene under the control of the IFN-β minimal promoter fused to five NF-κB and AP-1-binding sites. Briefly, cells are seeded into Greiner 384 well plates (15000 cells per well for TLR7, 20,000 for TLR8 and 25,000 for TLR9) and then treated with test compounds in DMSO to yield a final dose response concentration range of 0.05 nM-50 μM. After a 30 minute compound pre-treatment al room temperature, the cells are then stimulated with a TLR7 ligand (gardiquimod at a final concentration of 7.5 μM), TLR8 ligand (R848 at a final concentration of 15.9 μM) or TLR9 ligand (ODN2006 at a final concentration of 5 nM) to activate NF-κB and AP-1 which induce the production of SEAP. After a 22 hour incubation at 37° C., 5% CO2, SEAP levels are determined with the addition of HEK-Blue™ Detection reagent (Invivogen), a cell culture medium that allows for detection of SEAP, according to manufacturer's specifications. The percent inhibition is determined as the % reduction in the HEK-Blue signal present in wells treated with agonist plus DMSO alone compared to wells treated with a known inhibitor.

human TLR9 = biological target: T2, human TLR9 (Homo sapiens, UniProt Q9NR96); assay: TLR9 inhibition reporter assay (HEK-Blue cells, SEAP reporter, ODN2006 stimulation); conditions: HEK-Blue cells overexpressing human TLR9, SEAP reporter, ODN2006 5 nM
T2 construct: host or cells: HEK-Blue cells
T2 sequence (Q9NR96 26-1032): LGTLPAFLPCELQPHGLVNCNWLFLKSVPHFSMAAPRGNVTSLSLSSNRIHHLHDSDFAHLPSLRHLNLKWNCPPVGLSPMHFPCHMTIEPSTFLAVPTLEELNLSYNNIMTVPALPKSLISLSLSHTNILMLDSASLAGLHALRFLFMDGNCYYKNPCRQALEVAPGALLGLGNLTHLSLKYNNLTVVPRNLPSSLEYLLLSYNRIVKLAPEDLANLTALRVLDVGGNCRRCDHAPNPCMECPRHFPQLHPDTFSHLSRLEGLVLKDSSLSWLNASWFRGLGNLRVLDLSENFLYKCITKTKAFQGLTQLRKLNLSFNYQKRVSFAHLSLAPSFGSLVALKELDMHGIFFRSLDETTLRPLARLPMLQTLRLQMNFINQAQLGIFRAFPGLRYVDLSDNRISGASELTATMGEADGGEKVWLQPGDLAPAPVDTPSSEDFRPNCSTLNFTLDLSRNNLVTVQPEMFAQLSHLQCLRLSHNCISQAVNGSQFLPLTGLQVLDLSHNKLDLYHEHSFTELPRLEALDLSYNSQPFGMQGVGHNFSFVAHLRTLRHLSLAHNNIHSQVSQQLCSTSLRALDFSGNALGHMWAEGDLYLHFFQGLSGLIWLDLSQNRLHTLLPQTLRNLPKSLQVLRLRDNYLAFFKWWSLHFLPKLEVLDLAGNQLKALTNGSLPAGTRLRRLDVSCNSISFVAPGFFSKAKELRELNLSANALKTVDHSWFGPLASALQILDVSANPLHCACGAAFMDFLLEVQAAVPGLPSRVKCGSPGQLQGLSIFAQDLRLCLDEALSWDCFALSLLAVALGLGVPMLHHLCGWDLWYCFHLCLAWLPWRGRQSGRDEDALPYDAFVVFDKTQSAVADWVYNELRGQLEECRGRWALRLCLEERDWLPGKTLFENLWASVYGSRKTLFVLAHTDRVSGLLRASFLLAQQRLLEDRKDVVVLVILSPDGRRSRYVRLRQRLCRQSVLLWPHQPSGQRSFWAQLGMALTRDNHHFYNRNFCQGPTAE
Method: as §1, §2

human TLR8 = biological target: T3, human TLR8 (Homo sapiens, UniProt Q9NR97); assay: TLR8 inhibition reporter assay (HEK-Blue cells, SEAP reporter, R848 stimulation); conditions: HEK-Blue cells overexpressing human TLR8, SEAP reporter, R848 15.9 μM
T3 construct: host or cells: HEK-Blue cells
T3 sequence (Q9NR97 27-1041): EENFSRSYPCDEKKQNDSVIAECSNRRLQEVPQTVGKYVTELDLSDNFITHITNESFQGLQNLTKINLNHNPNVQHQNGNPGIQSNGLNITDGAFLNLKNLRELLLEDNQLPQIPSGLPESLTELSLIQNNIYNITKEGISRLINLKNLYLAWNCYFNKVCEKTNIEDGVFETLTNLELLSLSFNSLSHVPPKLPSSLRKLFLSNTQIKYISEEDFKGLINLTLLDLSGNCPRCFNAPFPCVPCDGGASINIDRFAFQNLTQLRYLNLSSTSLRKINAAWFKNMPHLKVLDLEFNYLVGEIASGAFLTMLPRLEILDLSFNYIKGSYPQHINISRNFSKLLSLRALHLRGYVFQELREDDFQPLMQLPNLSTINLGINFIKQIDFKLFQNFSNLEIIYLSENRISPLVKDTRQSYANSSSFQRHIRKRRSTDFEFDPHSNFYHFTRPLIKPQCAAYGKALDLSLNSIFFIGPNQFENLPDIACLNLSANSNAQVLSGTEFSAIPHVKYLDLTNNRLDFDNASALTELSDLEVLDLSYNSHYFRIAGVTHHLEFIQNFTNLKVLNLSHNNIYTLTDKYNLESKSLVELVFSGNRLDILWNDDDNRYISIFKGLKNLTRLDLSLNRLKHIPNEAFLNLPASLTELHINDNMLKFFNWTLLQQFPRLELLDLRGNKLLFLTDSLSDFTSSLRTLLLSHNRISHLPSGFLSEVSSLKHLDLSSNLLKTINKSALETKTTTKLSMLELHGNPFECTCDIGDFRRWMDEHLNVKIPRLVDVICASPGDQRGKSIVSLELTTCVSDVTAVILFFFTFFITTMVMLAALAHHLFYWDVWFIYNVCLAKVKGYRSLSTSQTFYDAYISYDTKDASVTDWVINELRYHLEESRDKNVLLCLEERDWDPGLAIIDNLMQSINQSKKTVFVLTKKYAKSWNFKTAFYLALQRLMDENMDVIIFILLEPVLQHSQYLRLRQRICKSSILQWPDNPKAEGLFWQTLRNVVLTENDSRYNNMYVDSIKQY
Method: as §1, §2

| Structure (SMILES) | IC50 (human TLR7) | IC50 (human TLR9) | IC50 (human TLR8) |
| --- | --- | --- | --- |
| Cc1c(-c2[nH]c3ccc(C4CC(NC(=O)CN(C)C)C4)cc3c2C(C)C)cn2ncnc2c1C (stereo not drawn) [Example 573] | 3 nM | 12600 nM | 2.3 nM |
| Cc1c(-c2[nH]c3ccc(C4CCC(N(C)C)CC4)cc3c2C(C)C)cn2ncnc2c1C (stereo not drawn) [Example 105] | 0.75 nM | 2070 nM | 1.8 nM |
| Cc1c(-c2[nH]c3ccc(C4CCC(N5CC(CO)(CO)C5)CC4)cc3c2C(C)C)cn2ncnc2c1C (single isomer, unassigned) [Example 26] | 0.92 nM | 260 nM | 0.84 nM |
| COc1cc(-c2[nH]c3ccc(C4CCC(NCC(F)F)CC4)cc3c2C(C)C)cn2ncnc12 (single isomer, unassigned) [Example 67] | 0.17 nM | 5760 nM | 1.3 nM |
| Cc1c(-c2[nH]c3ccc(C4CN(C5CCOC5)C4)cc3c2C(C)C)cn2cnnc2c1C (stereo not drawn) [Example 538] | 33 nM | 16500 nM | 45 nM |
| COc1cc(-c2[nH]c3ccc(C4CCCN(CC(N)=O)C4)cc3c2C(C)C)cn2ncnc12 (stereo not drawn) [Example 229] | 4 nM | 6380 nM | 8.1 nM |
| Cc1cc(-c2[nH]c3ccc(C4CCC5(CC4)NC(=O)NC5=O)cc3c2C(C)C)cc(C)n1 (stereo not drawn) [Example 366, 8-(2-(2,6-dimethylpyridin-4-yl)-3-isopropyl-1H-indol-5-yl)-1,3-diazaspiro[4.5]decane-2,4-dione] | 6 nM | 21700 nM | 183 nM |
| Cc1c(-c2[nH]c3ccc(C4CN(CC5(C)COC5)C4)cc3c2C(C)C)cn2cnnc2c1C [Example 536] | 26 nM | 11000 nM | 21 nM |
| COc1cc(-c2[nH]c3ccc(C4CCCN(C(=O)CN(C)C)C4)cc3c2C(C)C)cn2ncnc12 (stereo not drawn) [Example 191] | 0.34 nM | 1870 nM | 2.6 nM |

Continued by falling IC50 (human TLR7), values first:

| IC50 (human TLR7) | IC50 (human TLR9) | IC50 (human TLR8) | Structure (SMILES) |
| --- | --- | --- | --- |
| 28 nM | 2860 nM | 44 nM | Cc1cc(-c2[nH]c3ccc(C4CCC(OC5CCNCC5)CC4)cc3c2C(C)C)ccn1 (stereo not drawn) [Example 503] |
| 12 nM | 11100 nM | 21 nM | Cc1c(-c2[nH]c3ccc(C4CCC(NC5COC5)CC4)cc3c2C(C)C)cn2cnnc2c1C (stereo not drawn) [Example 524] |
| 5 nM | 2460 nM | 42 nM | Cc1c(-c2[nH]c3ccc(C4CCC(NCC(=O)N(C)C)CC4)cc3c2C(C)C)cn2cnnc2c1C (stereo not drawn) [Example 517] |
| 4 nM | 280 nM | 3.6 nM | Cc1cc(-c2[nH]c3ccc(C4CCCNC4)cc3c2C(C)C)cc(C)n1 (stereo not drawn) [Example 186] |
| 2 nM | 1980 nM | 4.7 nM | CCN(C)C1CCC(c2ccc3[nH]c(-c4cn5ncnc5c(C)c4C)c(C(C)C)c3c2)CC1 (stereo not drawn) [Example 88] |
| 2 nM | 3100 nM | 9.2 nM | COc1cc(-c2[nH]c3ccc(C4CCCN(CC(=O)N(C)C)C4)cc3c2C(C)C)cn2ncnc12 (stereo not drawn) [Example 222, 2-(3-(3-isopropyl-2-(8-methoxy-[1,2,4]triazolo[1,5-a]pyridin-6-yl)-1H-indol-5-yl)piperidin-1-yl)-N,N-dimethylacetamide] |
| 1 nM | 2330 nM | 27 nM | Cc1c(-c2[nH]c3ccc(C4CC5CN(C(C)C)CC5C4)cc3c2C(C)C)cn2cnnc2c1C (stereo not drawn) [Example 560] |
| 0.96 nM | 2000 nM | 5.5 nM | CNCC(=O)N1CC(c2ccc3[nH]c(-c4cc(C)c5ncnn5c4)c(C(C)C)c3c2)C1 [Example 267, 1-(3-(3-isopropyl-2-(8-methyl-[1,2,4]triazolo[1,5-a]pyridin-6-yl)-1H-indol-5-yl)azetidin-1-yl)-2-(methylamino)ethan-1-one] |
| 0.93 nM | 3450 nM | 0.9 nM | COc1cc(-c2[nH]c3ccc(C4CC(NCC(=O)N(C)C)C4)cc3c2C(C)C)cn2ncnc12 (stereo not drawn) [Example 570] |
| 0.15 nM | 1290 nM | 1 nM | Cc1cc(-c2[nH]c3ccc(C4CCC(N)CC4)cc3c2C(C)C)cn2ncnc12 (single isomer, unassigned) [Example 3] |
